# Measurements published in US10632101B2, “Methods and compositions for supporting endogenous systems related to life span” (USANA Health Sciences, Inc., priority 2016, dated 2020).
# Key:
# human NF-κB = experiment: NF-κB reporter cell assay, antagonist mode; type: cell-based
# human PPARδ = target: T1, human PPARδ (Homo sapiens, UniProt Q03181); experiment: PPARδ reporter cell assay, agonist mode; type: cell-based
# T1 construct: expressed in transfected cells; host or cells: CHO
# T1 sequence (Q03181 211-439 limits assumed): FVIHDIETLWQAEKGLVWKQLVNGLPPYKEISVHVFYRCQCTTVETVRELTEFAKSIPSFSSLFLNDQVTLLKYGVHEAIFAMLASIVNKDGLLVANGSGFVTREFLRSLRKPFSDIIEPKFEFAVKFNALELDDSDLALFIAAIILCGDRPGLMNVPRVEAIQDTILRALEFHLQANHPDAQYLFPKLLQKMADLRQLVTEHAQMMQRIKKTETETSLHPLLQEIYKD
# human PPARα = target: T2, human PPARα (Homo sapiens, UniProt Q07869); experiment: PPARα reporter cell assay, agonist mode; type: cell-based
# T2 construct: expressed in transfected cells; host or cells: CHO
# T2 sequence (Q07869 239-466 limits assumed): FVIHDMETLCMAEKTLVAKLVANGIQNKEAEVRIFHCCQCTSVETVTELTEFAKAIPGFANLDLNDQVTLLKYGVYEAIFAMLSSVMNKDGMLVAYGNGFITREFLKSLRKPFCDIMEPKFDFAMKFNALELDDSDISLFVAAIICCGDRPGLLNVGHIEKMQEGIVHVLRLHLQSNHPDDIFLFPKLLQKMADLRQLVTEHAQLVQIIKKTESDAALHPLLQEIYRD
# Nrf2 = Nrf2 signaling fluorescent reporter assay in human retinal epithelial cell line; type: cell-based; details: 100 and 30 μM
# Protocol: The assays were carried out with a fluorescent reporter assay that utilized a human retinal epithelial cell line. The assays also included validation by RT-PCR (reverse transcription polymerase chain reaction) of Nrf2 target genes. The human retinal epithelial cell line was purchased from ATCC (American Type Cell Culture, Manassas, Va.) and was configured to function as a fluorescent reporter assay. Test solutions of each of the alpha lipoic acid, resveratrol, curcumin, EGCG, Olivol®, rutin, quercetin, and hesperetin were prepared by serial dilution. Control solutions were also prepared. Positive control solutions of a known Nrf2 agonist, L-sulphoraphane was also prepared. Each test solution was then assayed for Nrf2 signaling activity using the fluorescent reporter assay and compared to control assays. The positive control solutions were also tested.
# C. elegans strain CB5586 = experiment: Phenotypic lifespan screening in C. elegans; type: in vivo; details: 0.1 and 10 mg/ml tested
# Protocol: Dilutions of the test formulations were applied to individual populations of C. elegans and the lifespan of each population was monitored. Any changes in the lifespan of an individual population compared to a control population were recorded and correlated to the respective test formulation (N356 or N357) and the respective dilution (0.1 mg/ml, 1 mg/ml, and 10 mg/ml).
# The N256 and N357 formulations were each prepared as individual 100 mg/ml stock solutions in dimethyl sulfoxide (DMSO). Serial dilutions of each stock solution were then prepared at 0.1 mg/ml, 1 mg/ml, and 10 mg/ml in DMSO. Control solutions of DMSO only were also prepared. Synchronous aged adult populations of C. elegans strain CB5586 worms were prepared. The CB5586 strain comprises a pharyngeal GFP (green fluorescent protein) tag and a mutation in the bus-5 gene. The pharyngeal GFP tag allows for fluorescent images of the worm populations to be taken. The mutation in the bus-5 gene causes the loss of normal cuticle antigens that permits the cuticle of the worms to become permeable to the test formulations and allow direct uptake of the test formulations to avoid interaction of the test formulations with protective mechanisms of the gut channel. Each serial dilution of each test formulation was added to a separate population of the prepared worms. The control solutions were also added to separate populations of the prepared worms. The populations of the prepared worms were then maintained on standard nematode growth media (NGM) agar plates at 20° C. with sufficient food (Escherichia coli strain OP-50).
# Each worm population was then monitored by fluorescent imaging to determine the number of living and dead worms as a function of time. The fluorescent imaging was analyzed by software that recognized and counted worms based on their fluorescent intensity compared to background fluorescence. […] The ability to distinguish between living and dead worms allowed the number of living worms and a cumulative number of dead worms to be monitored against time. Worm populations from a selection of fluorescent images were manually checked to verify that the software had accurately counted the number of living and dead worms.
# The counts of the living and dead worms as a function of time were then analyzed for each of the worm populations and used to prepare Kaplan-Meier survival curves and associated statistics for each of the worm populations. […] The median lifespan is shown as the length of time after the last mitotic division that 50% of the test population remains viable when compared to the control population. The maximum lifespan extension is shown as the length of time after the last mitotic division that 5% of the test population remains viable when compared to the control population.
# The counts of the living and dead worms as a function of time and the Kaplan-Meier survival curves and the associated statistics were then analyzed for each of the worm populations. The analysis included determining mean and median lifespan. The analysis included a non-parametric test, the Log-Rank test, which compares two survival functions for the overall lifespan assay and provides a reliable p-value summarizing the whole experiment. The analysis also included Fisher's Exact Test that calculated the significance of survival function comparisons at multiple specific time points throughout the experiment, rather than for the overall lifespan. The results of the analysis are shown below in Tables 10-17.
# Phenotypic screening was carried out as described in EXAMPLE 2 for various individual compounds of the N357 formulation. […] Alpha lipoic acid was sourced from PureBulk™ USA as a racemic mix of R and S stereoisomers and was assigned a sample number of N198. Hesperidin was sourced from Sigma Aldrich at ≥80% purity and was assigned a sample number of N347. […]
# [1] = test system: NF-κB reporter cells (HEK293); experiment: Live cell multiplex read-out in the NF-κB antagonist assay; type: cell-based, human; details: 1.42 μg/ml
# Protocol: Various receptor assays were carried out for test compounds corresponding to ingredients of the nutritional supplement composition. In general, the receptor assays utilized reporter cells that either expressed a native receptor or a receptor hybrid. The receptor hybrids were engineered so that the native N-terminal DNA binding domain (DBD) was replaced with a yeast Gal4 DBD. The reporter cells expressed a hybrid receptor comprising either the native receptor (Nrf2 and NF-κB) or the N-terminal Gal4 DNA binding domain fused to the ligand binding domain of the specific human nuclear receptor (PPARα, PPARδ, and PPARγ). The reporter gene (e.g., firefly luciferase) was functionally linked to either upstream receptor-specific response elements (GRE) or the Gal4 upstream activation sequence (UAS). A summary of the receptors, the reporter cells used for each particular receptor assay, and the reference compounds used to confirm performance of the receptor assays are indicated below in Table 4.
# A vehicle control was prepared. […] After incubation, fluorescence was measured to determine a relative number of live cells per test well.
# human PPARγ = target: T3, human PPARγ (Homo sapiens, UniProt P37231); experiment: PPARγ reporter cell assay, agonist mode; type: cell-based
# T3 construct: expressed in transfected cells; host or cells: CHO
# T3 sequence (P37231 238-503 limits assumed): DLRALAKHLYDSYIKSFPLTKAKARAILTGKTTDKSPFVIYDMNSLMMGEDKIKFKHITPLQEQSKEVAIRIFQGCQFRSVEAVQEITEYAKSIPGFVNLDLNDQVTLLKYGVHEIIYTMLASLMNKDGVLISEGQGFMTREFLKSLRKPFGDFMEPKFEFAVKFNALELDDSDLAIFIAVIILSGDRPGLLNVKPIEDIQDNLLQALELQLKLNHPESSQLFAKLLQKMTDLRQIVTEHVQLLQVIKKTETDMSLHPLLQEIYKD
# mTOR = target: T4, mTOR (Homo sapiens, UniProt P42345); details: cited from earlier work; for mTOR inhibition: applied to isolated cells in culture
# T4 construct: host or cells: isolated cells in culture (not specified)
structure (smiles),measurement,setting,value
"O=C(O)CCCCC1CCSS1 (racemic) [Alpha lipoic acid, alpha lipoic acid]",NF-κB % Inhibition,human NF-κB; 4.25 μg/ml,−0.70%
same,PPARδ Fold-Activation,human PPARδ; 1.42 μg/ml,1.5
same,PPARδ Fold-Activation,human PPARδ; 4.25 μg/ml,1.1
same,PPARδ Fold-Activation,human PPARδ; 12.7 μg/ml,0.80
same,PPARδ Fold-Activation,human PPARδ; 38.23 μg/ml,0.52
same,PPARδ Fold-Activation,human PPARδ; 114.70 μg/ml,0.29
same,PPARα Fold-Activation,human PPARα; 1.42 μg/ml,1.4
same,PPARα Fold-Activation,human PPARα; 4.25 μg/ml,1.3
same,PPARα Fold-Activation,human PPARα; 12.7 μg/ml,1.2
same,PPARα Fold-Activation,human PPARα; 38.23 μg/ml,1.5
same,PPARα Fold-Activation,human PPARα; 114.70 μg/ml,2.3
same,activation of Nrf2,Nrf2,demonstrated activation of Nrf2
same,effect on chronological lifespan,C. elegans strain CB5586,significant positive and dose-dependent increase of chronological lifespan
same,NF-κB % Live Cell,[1],100%
same,PPARγ Fold-Activation,human PPARγ; 1.42 μg/ml,1.1
same,PPARγ Fold-Activation,human PPARγ; 4.25 μg/ml,1.1
same,PPARγ Fold-Activation,human PPARγ; 12.7 μg/ml,1.3
same,PPARγ Fold-Activation,human PPARγ; 38.23 μg/ml,1.4
same,PPARγ Fold-Activation,human PPARγ; 114.70 μg/ml,3.4
"COc1cc(/C=C/C(=O)CC(=O)/C=C/c2ccc(O)c(OC)c2)ccc1O [Curcumin, curcumin]",NF-κB % Inhibition,human NF-κB; 0.007 μg/ml,−10%
same,NF-κB % Inhibition,human NF-κB; 0.60 μg/ml,30%
same,PPARδ Fold-Activation,human PPARδ; 0.007 μg/ml,1.2
same,PPARδ Fold-Activation,human PPARδ; 0.022 μg/ml,1.2
same,PPARδ Fold-Activation,human PPARδ; 0.067 μg/ml,1.0
same,PPARδ Fold-Activation,human PPARδ; 0.20 μg/ml,1.2
same,PPARδ Fold-Activation,human PPARδ; 0.60 μg/ml,1.3
same,PPARδ Fold-Activation,human PPARδ; 1.81 μg/ml,1.0
same,PPARα Fold-Activation,human PPARα; 0.007 μg/ml,1.3
same,PPARα Fold-Activation,human PPARα; 0.022 μg/ml,1.3
same,PPARα Fold-Activation,human PPARα; 0.067 μg/ml,1.3
same,PPARα Fold-Activation,human PPARα; 0.20 μg/ml,1.1
same,PPARα Fold-Activation,human PPARα; 0.60 μg/ml,1.0
same,PPARα Fold-Activation,human PPARα; 1.81 μg/ml,0.86
same,mTOR inhibition,mTOR,inhibit mTOR
same,"mTOR inhibition, mitophagy and mitochondrial turnover",mTOR,"inhibit mTOR, up-regulate mitophagy, and increase the rate of mitochondrial turnover"
same,PPARγ Fold-Activation,human PPARγ; 0.007 μg/ml,1.0
same,PPARγ Fold-Activation,human PPARγ; 0.022 μg/ml,1.0
same,PPARγ Fold-Activation,human PPARγ; 0.067 μg/ml,0.95
same,PPARγ Fold-Activation,human PPARγ; 0.20 μg/ml,0.96
same,PPARγ Fold-Activation,human PPARγ; 0.60 μg/ml,0.90
same,PPARγ Fold-Activation,human PPARγ; 1.81 μg/ml,1.1
Cn1c(=O)c2c(ncn2C)n(C)c1=O [caffeine],mTOR inhibition,mTOR,inhibit mTOR
same,"mTOR inhibition, mitophagy and mitochondrial turnover",mTOR,"inhibit mTOR, up-regulate mitophagy, and increase the rate of mitochondrial turnover"
"O=C(O[C@@H]1Cc2c(O)cc(O)cc2O[C@@H]1c1cc(O)c(O)c(O)c1)c1cc(O)c(O)c(O)c1 [EGCG, epigallocatechin gallate]",NF-κB % Inhibition,human NF-κB; 0.033 μg/ml,10%
same,NF-κB % Inhibition,human NF-κB; 0.098 μg/ml,18%
same,NF-κB % Inhibition,human NF-κB; 0.30 μg/ml,0.10%
same,NF-κB % Inhibition,human NF-κB; 0.89 μg/ml,8.4%
same,NF-κB % Inhibition,human NF-κB; 2.67 μg/ml,−15%
same,NF-κB % Inhibition,human NF-κB; 8 μg/ml,−29%
same,mTOR inhibition,mTOR,inhibit mTOR
same,"mTOR inhibition, mitophagy and mitochondrial turnover",mTOR,"inhibit mTOR, up-regulate mitophagy, and increase the rate of mitochondrial turnover"
